Test results as given in patent publication US12351583B2, “Triazolopyrimidines based on thymine nucleobase and methods for producing them” (TERA STONE CO., LTD, priority 2019, dated 2025).
Read-outs that look alike come from different tables or passages of the source.

How the values were obtained:
[1] = tested on: CCRF-HSB-2 cells (human acute lymphoblastic leukemia); experiment: MTT cell proliferation inhibition assay, CCRF-HSB-2 cells; assay type: cell-based; details: for IC50: MTT assay, cultured 3 days, probit analysis, read-out: Inhibitory concentration against tumor cell lines in vitro IC50, CCRF-HSB-2; for cell proliferation inhibitory activity compared with 5-FU, CCRF-HSB-2 cells: comparison of IC50 with control drug 5-FU
Procedure: (§1) Regarding the synthesized triazolopyrimidine compounds, their cell proliferation inhibitory activities, as an index of antitumor acttivity, were examined. The test was performed by MTT assay (T. Mosmann, J. Immunol. Methods, 65, 55 (1983); M. B. Hansen, S. E. Nielsen and K. Berg, J. Immunol. Methods, 119, 203 (1989), which are incorporated by reference in their entirety.), and the cancer cells tested were CCRF-HSB-2 cells (human acute lymphoblastic leukemia) and KB cells (human […]). Cytarabine (Ara-C, cytarabine: 4-amino-1-β-D-arabinofuranosyl-2(1H)-one) and 5-fluorouracil (5-FU, 5-fluorouracil) were used as control drugs, which are antimetabolite anticancer agents used for, for example, acute leukemia and/or gastrointestinal cancer.
(§2) Human acute lymphoblastic leukemia cells (T-cells) CCRF-HSB-2 and human nasopharyngeal carcinoma-derived KB cells were cultured in RPMI 1640 medium supplemented with 10% fetal bovine serum.
(§3) Test agents were dissolved in dimethyl sulfoxide to become a concentration of 10 mg/ml and stored at 4° C. These solutions were diluted with MEM-Hanks medium and used for the assay.
(§4) • 1. 50 μl of the agent solution or MEM-Hanks medium was pre-filled in a 96-well plate. • 2. Cells in the logarithmic growth phase were harvested, and suspension of the cells was prepared such that the cell density is 1×10^5 cells/ml (5,000 cells/50 μl/well) and the serum concentration is 20%. The suspension 50 μl was seeded to each well. The cells were cultured in a carbon dioxide incubator at 37° C. for 3 days. • 3. After completion of the culture, 10 μl of MTT solution*(5 mg/ml in PBS-) was added to each well, and the cells were further cultured at 37° C. for 4 hours in a carbon dioxide incubator. *MTT solution: 1 g of MTT (Sigma M-2128) was dissolved in 200 ml of PBS-under light shielding, and the solution was filtrated using a 0.45 μm filter, and then stored at 4° C. If insoluble components precipitated during storage, filtration was performed again. • 4. After completion of the culture, 100 μl of 0.02 N HCl/50% N,N-dimethylformamide/20% SDS was added and stirred in each well to dissolve produced formazan. Its absorbance at 570 nm (test wavelength) and 690 nm (reference wavelength) was measured by a microplate reader (Tosoh MPR4Ai) and the proliferation inhibition rate was determined by the following formula. Inhibition rate (%)=(1−Tx/Cx)×100
(§5) Tx: Absorbance of wells containing sample
(§6) Cx: Absorbance of wells containing no sample (control) • 5. Inhibitory concentration showing 50% inhibition (IC50) of samples were determined by probit analysis using a computer software. [Evaluation]

[2] = tested on: KB cells (human nasopharyngeal carcinoma-derived); experiment: MTT cell proliferation inhibition assay, KB cells; assay type: cell-based; details: for IC50: MTT assay, cultured 3 days, probit analysis, read-out: Inhibitory concentration against tumor cell lines in vitro IC50, KB; for cell proliferation inhibitory activity compared with 5-FU, KB cells: comparison of IC50 with control drug 5-FU
Procedure: as §1, §2, §3, §4, §5, §6

| IC50 [1] | IC50 [2] | SMILES | further results |
| --- | --- | --- | --- |
| 15.2 µM | 13.4 µM | Cc1c[nH]c(=O)n2nc(-c3ccc(Cl)c(Cl)c3)nc12 [Compound 5j] |  |
| 63.1 µM | 42.9 µM | Cc1ccc(-c2nc3c(C)c[nH]c(=O)n3n2)cc1 [Compound 5c] |  |
| 55.5 µM | 62.4 µM | Cc1c[nH]c(=O)n2nc(-c3ccc(F)cc3)nc12 [Compound 5h] |  |
| 78 µM | 82 µM | CCc1nnc2c(C)c[nH]c(=O)n12 [Compound 4a] |  |
| 48.8 µM | 62.4 µM | Cc1c[nH]c(=O)n2nc(-c3ccccc3F)nc12 [Compound 5g] |  |
|  |  | Nc1ccn([C@@H]2O[C@H](CO)[C@@H](O)[C@@H]2O)c(=O)n1 [AraC, 4-amino-1-β-D-arabinofuranosyl-2(1H)-one, reference compound] | IC50 ([1]; Homo sapiens, 72 h): 0.021 µM; IC50 ([2]; Homo sapiens, 72 h): 0.12 µM |
| > 100 µM | 23.7 µM | Cc1c[nH]c(=O)n2nc(-c3ccc(C#N)cc3)nc12 [Compound 5m] |  |
| 71.6 µM | 1.85 µM | Cc1c[nH]c(=O)n2nc(-c3ccc([N+](=O)[O-])cc3)nc12 [Compound 5f] | cell proliferation inhibitory activity compared with 5-FU, KB cells [2]: stronger cell proliferation inhibitory activity than 5-FU |
| 28.7 µM | 42.1 µM | Cc1c[nH]c(=O)n2nc(-c3ccncc3)nc12 [Compound 5q] |  |
| 48.6 µM | 57.1 µM | Cc1c[nH]c(=O)n2nc(-c3ccccc3)nc12 [Compound 5b] |  |
|  |  | O=c1[nH]cc(F)c(=O)[nH]1 [Compound 5-FU, 5-fluorouracil, reference compound] | IC50 ([1]; Homo sapiens, 72 h): 2.74 µM; IC50 ([2]; Homo sapiens, 72 h): 2.24 µM |
| > 100 µM | > 100 µM | Cc1c[nH]c(=O)nc1NN=Cc1ccccc1 [Compound 3b] |  |
|  |  | Cc1cnc(Cl)n2nc(-c3ccc(C#N)cc3)nc12 [Compound 6m] | cell proliferation inhibitory activity compared with 5-FU, CCRF-HSB-2 cells [1]: stronger cell proliferation inhibitory activity than 5-FU |
| 41.8 µM | 50 µM | Cc1c[nH]c(=O)n2nc(-c3ccc(Cl)cc3)nc12 [Compound 5i] |  |
| > 100 µM | > 100 µM | Cc1c[nH]c(=O)n2nc(-c3ccc(C(=O)O)cc3)nc12 [Compound 5n] |  |
| 58.2 µM | 48.5 µM | CCc1nc2c(F)c[nH]c(=O)n2n1 [Compound 9c] |  |
| 41.3 µM | 43.8 µM | N#Cc1ccc(-c2nc3c(F)c[nH]c(=O)n3n2)cc1 [Compound 9g] |  |
| 22.3 µM | 39 µM | O=c1[nH]cc(F)c2nc(-c3ccccc3)nn12 [Compound 9d] |  |
| 99.1 µM | > 100 µM | Cc1c[nH]c(=O)n2nc(-c3ccc4ccccc4c3)nc12 [Compound 5r] |  |
| > 100 µM | > 100 µM | Cc1c[nH]c(=O)n2c(-c3ccccc3)nnc12 [Compound 4b] |  |
| > 100 µM | > 100 µM | COc1cc(OC)c(-c2nc3c(C)c[nH]c(=O)n3n2)c(OC)c1 [Compound 5e] |  |
| 74.5 µM | 92.9 µM | Cc1c[nH]c(=O)n2nc(-c3ccccc3Br)nc12 [Compound 5k] |  |
| 59.4 µM | 77.5 µM | Cc1c[nH]c(=O)n2nc(-c3cccnc3)nc12 [Compound 5p] |  |
|  |  | Cc1cnc(Cl)n2nc(-c3ccccc3)nc12 [Compound 6b] | cell proliferation inhibitory activity compared with 5-FU, CCRF-HSB-2 cells [1]: stronger cell proliferation inhibitory activity than 5-FU |
| 23.6 µM | 28.9 µM | O=c1[nH]cc(F)c2nc(-c3ccc(Cl)c(Cl)c3)nn12 [Compound 9e] |  |
|  |  | Cc1cnc(Cl)n2nc(-c3ccc(Cl)c(Cl)c3)nc12 [Compound 6j] | cell proliferation inhibitory activity compared with 5-FU, CCRF-HSB-2 cells [1]: stronger cell proliferation inhibitory activity than 5-FU |
| > 100 µM | > 100 µM | COc1ccc(-c2nc3c(C)c[nH]c(=O)n3n2)cc1 [Compound 5d] |  |
|  |  | Cc1cnc(Cl)n2nc(-c3ccc([N+](=O)[O-])cc3)nc12 [Compound 6f] | cell proliferation inhibitory activity compared with 5-FU, CCRF-HSB-2 cells [1]: stronger cell proliferation inhibitory activity than 5-FU; cell proliferation inhibitory activity compared with 5-FU, KB cells [2]: stronger cell proliferation inhibitory activity than 5-FU |
| 31.5 µM | 28.5 µM | O=c1[nH]cc(F)c2nc(-c3ccc(Br)cc3)nn12 [Compound 9f] |  |
